Patent US6605609B2, “Thizaine oxazolidinone” (Pharmacia & Upjohn Company, priority 2000, dated 2003)
Converted amounts (≈) assume the structure as drawn.

Assays:
[1] = system: S. aureus (52 isolates), methicillin-resistant; experiment: MIC by agar dilution (MIC90); assay type: cell-based, Staphylococcus aureus; conditions: minimum inhibitory concentration required to inhibit 90% of the isolates
Text: The in vitro activity of the compound of this invention can be assessed by standard testing procedures such as the determination of minimum inhibitory concentration (MIC) by agar dilution as described in “Approved Standard. Methods for Dilution Antimicrobial Susceptibility Tests for Bacteria That Grow Aerobically”, 3rd. ed., published 1993 by the National Committee for Clinical Laboratory Standards, Villanova, Pa., USA.

[2] = Loss during and following terminal moist heat sterilization in container; assay type: physicochemical; conditions: container-solution contact surface made of at least 50% polyolefin
Text: When terminally moist heat sterilizing an IV solution, the solution is placed in the container in which (1) it will be stored and then transferred to the container from which it will ultimately be administered, or (2) stored and then ultimately administered from the same container to deliver the IV solution to the patient. […] What is essential is that the container-solution contact surface material be primarily a polyolefin; the remainder of the container can be made from polyolefin or other materials. It is preferred that the container-solution contact surface is made of from about 50 to about 100% polyolefin. It is more preferred that the container-solution contact surface is made of from about 70 to about 90% polyolefin. It is more preferred that the container-solution contact surface is made of from about 80% polyolefin. It is even more preferred that the container-solution contact surface is made of polyolefin.

SMILES | melting point [°C] | MIC90 S. aureus (52 isolates), methicillin-resistant [1] [µg/mL] | loss of the compound during and following terminal moist heat sterilization [2]
CC(=O)NC[C@H]1CN(c2cc(F)c(N3CCS(=O)(=O)CC3)c(F)c2)C(=O)O1 [The compound of formula I, N-({(5S)-3-[4-(1,1-dioxido-4-thiomorpholinyl)-3,5-difluorophenyl]-2-oxo-1,3-oxazolidin-5-yl}methyl)acetamide] | 187 to 189.5 | 2 | significantly much less loss
CC(=O)NC[C@H]1CN(c2ccc(N3CCOCC3)c(F)c2)C(=O)O1 [linezolid, reference compound] | – | 4 (≈ 11.9 µM) | –
